Reference: US8017124B2, “Use of DMBT1 for capturing sulphate and phosphate group exposing agents” (priority 2004, dated 2011)
Read-outs that look alike come from different tables or passages of the source.

Legend:
DMBT1 = target: T1, DMBT1 (Homo sapiens, UniProt Q9UGM3); experiment: Binding of DMBT1/rDMBT1 to immobilized candidate substances (ELISA); conditions: substance immobilized; DMBT1 or rDMBT1 10 μg/ml
T1 construct: was obtained from parotid saliva of healthy volunteer donors collected with Lashley cups; from tissue; host or cells: parotid saliva of healthy volunteer donors, purified to about 95% homogeneity
T1 sequence (Q9UGM3 20-2413): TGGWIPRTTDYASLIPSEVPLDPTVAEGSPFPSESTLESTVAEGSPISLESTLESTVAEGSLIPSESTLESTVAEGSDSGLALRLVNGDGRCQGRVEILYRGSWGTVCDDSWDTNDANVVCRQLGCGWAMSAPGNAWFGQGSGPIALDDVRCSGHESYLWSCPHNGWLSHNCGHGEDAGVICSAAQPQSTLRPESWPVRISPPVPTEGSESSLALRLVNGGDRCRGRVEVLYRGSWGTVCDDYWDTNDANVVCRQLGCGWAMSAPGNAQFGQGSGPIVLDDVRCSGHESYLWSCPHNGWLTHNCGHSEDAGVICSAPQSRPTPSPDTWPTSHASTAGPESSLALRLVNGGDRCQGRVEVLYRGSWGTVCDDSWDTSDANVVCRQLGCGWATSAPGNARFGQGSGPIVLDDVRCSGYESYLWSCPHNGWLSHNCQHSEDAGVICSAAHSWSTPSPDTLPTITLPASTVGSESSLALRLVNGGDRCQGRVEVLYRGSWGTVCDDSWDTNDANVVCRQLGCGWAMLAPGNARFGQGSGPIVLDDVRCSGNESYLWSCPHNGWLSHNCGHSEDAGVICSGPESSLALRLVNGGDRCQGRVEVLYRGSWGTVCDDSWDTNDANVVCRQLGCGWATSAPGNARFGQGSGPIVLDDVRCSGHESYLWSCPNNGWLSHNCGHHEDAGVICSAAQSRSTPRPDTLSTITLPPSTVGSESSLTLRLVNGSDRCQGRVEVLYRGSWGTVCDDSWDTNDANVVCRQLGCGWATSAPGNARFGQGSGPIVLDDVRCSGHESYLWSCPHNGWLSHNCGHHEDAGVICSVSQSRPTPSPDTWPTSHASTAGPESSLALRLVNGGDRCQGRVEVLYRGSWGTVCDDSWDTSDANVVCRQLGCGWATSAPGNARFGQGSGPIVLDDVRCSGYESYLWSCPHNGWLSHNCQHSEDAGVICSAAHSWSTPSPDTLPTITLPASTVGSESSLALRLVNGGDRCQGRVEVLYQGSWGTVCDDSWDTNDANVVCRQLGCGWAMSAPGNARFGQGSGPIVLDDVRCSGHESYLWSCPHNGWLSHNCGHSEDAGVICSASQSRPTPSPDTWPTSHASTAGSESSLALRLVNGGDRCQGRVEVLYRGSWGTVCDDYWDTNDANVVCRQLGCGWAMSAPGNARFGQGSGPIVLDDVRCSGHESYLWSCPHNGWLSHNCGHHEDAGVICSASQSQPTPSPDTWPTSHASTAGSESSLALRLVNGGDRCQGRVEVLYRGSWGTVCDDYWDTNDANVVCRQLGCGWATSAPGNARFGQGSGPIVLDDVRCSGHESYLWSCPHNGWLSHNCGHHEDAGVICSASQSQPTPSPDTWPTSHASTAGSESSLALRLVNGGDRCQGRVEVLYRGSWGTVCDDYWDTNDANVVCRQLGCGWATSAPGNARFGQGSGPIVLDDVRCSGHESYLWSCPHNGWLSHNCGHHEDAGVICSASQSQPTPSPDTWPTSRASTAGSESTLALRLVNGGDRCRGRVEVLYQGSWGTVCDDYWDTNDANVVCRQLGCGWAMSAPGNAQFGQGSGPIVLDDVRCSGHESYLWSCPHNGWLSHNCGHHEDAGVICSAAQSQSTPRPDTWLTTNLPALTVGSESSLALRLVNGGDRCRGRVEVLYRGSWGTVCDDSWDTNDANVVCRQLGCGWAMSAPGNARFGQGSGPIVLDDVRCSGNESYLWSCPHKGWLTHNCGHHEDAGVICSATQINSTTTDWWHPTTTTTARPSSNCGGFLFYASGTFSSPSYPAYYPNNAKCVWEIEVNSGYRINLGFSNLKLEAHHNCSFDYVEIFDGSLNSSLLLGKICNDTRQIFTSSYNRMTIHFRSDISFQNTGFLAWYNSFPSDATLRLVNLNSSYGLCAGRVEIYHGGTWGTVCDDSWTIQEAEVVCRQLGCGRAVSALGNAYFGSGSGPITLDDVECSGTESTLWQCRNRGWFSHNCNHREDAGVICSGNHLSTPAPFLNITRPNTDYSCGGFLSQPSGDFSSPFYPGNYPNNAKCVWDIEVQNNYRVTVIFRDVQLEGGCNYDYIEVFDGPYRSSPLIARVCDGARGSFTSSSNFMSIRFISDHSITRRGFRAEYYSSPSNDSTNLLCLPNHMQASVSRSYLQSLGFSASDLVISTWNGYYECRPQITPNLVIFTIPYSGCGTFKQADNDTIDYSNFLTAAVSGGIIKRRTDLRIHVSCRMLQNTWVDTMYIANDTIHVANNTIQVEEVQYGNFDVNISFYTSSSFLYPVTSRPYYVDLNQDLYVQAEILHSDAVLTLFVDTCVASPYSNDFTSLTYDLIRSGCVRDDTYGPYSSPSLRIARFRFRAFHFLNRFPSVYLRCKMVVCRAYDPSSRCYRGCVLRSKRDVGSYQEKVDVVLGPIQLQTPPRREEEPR
Description: For the peptide binding studies we used, unless otherwise indicated, 20 μg/ml peptide in a total volume of 100 μl (dilution in coating buffer, 100 mM carbonate buffer, pH 9.6) for the coating of high affinity ELISA plates (Microlon, Fluotrac 600; Greiner). When immobilizing rDMBT1, purified, partially purified DMBT1 or substances to be tested, we applied serial dilutions in coating buffer onto the plates. Coating was done at 4° C. for 16 h and was followed by three washes with PBS-T with 1 mM CaCl2 (PBS-TC). For the analysis of bacterial binding to immobilized peptides or protein, we incubated the wells with 100 μl bacterial solution at 37° C. for 2 h. After removal of unbound bacteria, 100 μl of SYTO-9 solution (Molecular Probes), which is a cell-permeable fluorescent DNA dye, was added, plates were incubated in the dark for 15 min and after three washes with PBS-TC, fluorescence was measured by determination of the emission at 535 nm with a microtiter plate reader (488 n=excitation; Fluostar Galaxy, BMG Laboratories). DNA binding to immobilized DMBT1 was analyzed by using the same plasmid (LPS-free preparation) as used for the competitive aggregation and transfection assays (see below). Bound DNA was detected analogous to detection of bacteria except for using SYTQ-13 as dye. […]

[1] = target: T2, human recombinant DMBT1 (rDMBT1) (Homo sapiens, UniProt Q9UGM3, G1295S/L1336F/T649M); experiment: Turbidometric competition assay, rDMBT1-mediated Streptococcus gordonii aggregation; assay type: binding; conditions: 0.32% to 2.50% (w/v) DSS; 0.28% to 0.84% degraded carrageenan; rDMBT1 15 μg/ml
T2 construct: made in house; purified from culture supernatant
T2 sequence (Q9UGM3 20-2413 T649M/G1295S/L1336F): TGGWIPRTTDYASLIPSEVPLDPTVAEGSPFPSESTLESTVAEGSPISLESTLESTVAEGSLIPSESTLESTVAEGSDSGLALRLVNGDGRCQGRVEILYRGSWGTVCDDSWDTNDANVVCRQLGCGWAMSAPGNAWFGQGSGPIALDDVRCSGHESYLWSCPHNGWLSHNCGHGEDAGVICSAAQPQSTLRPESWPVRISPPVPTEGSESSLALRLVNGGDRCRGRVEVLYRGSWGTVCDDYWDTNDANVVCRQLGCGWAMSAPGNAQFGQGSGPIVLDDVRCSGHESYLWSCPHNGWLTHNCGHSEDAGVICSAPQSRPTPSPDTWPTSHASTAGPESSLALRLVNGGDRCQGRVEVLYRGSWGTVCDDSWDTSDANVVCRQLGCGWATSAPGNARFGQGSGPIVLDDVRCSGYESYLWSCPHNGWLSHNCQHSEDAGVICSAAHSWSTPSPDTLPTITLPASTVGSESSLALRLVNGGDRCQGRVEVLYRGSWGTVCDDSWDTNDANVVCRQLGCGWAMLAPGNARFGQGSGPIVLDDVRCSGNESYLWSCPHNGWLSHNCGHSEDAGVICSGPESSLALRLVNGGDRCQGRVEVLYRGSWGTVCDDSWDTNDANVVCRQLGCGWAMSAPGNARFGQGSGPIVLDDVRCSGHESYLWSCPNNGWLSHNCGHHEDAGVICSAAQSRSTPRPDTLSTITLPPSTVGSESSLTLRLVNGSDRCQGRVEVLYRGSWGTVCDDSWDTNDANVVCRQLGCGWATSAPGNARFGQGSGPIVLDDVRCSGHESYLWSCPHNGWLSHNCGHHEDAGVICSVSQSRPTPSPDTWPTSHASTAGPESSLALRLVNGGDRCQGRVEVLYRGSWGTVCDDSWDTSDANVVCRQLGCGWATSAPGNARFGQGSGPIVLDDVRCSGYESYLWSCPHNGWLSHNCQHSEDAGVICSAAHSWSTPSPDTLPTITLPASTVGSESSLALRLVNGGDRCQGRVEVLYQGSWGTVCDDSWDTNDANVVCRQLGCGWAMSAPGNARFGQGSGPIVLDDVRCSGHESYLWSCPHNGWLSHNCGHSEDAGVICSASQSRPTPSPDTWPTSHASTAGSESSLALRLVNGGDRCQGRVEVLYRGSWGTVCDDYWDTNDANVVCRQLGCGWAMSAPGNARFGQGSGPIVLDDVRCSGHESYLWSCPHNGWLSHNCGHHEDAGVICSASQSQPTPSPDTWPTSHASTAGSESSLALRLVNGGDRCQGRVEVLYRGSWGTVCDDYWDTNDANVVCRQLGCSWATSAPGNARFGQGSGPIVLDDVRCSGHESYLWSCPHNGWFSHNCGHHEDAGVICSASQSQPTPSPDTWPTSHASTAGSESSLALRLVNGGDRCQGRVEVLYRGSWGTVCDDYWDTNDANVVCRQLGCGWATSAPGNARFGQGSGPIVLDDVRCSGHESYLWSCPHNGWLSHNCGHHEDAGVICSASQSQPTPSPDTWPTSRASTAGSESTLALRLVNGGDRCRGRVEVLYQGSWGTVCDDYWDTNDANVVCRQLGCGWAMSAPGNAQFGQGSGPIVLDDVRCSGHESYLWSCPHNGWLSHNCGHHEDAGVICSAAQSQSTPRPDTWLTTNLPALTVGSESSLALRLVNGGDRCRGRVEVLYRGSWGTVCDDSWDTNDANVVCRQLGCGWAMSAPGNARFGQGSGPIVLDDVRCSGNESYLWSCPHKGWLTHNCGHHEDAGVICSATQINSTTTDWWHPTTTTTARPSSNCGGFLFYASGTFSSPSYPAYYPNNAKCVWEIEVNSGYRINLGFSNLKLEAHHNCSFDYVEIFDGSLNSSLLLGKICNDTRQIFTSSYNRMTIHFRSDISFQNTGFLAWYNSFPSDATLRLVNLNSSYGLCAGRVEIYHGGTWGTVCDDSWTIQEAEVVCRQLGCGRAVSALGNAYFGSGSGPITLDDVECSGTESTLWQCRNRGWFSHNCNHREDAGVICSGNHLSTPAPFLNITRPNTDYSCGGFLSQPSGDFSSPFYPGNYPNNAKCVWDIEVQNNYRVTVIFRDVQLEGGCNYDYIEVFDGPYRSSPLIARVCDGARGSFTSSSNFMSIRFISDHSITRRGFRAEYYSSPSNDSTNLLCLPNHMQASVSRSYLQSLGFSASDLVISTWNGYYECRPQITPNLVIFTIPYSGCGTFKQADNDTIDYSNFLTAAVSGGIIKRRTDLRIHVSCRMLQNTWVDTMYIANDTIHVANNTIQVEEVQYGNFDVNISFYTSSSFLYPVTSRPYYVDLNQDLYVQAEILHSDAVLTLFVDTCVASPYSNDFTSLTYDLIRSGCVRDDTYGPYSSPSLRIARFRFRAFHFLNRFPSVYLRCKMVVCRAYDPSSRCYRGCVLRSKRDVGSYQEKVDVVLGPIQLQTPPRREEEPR
Description: (§1) Streptococcus gordonii (strain: […]) was cultured under anaerobic conditions as described before^17, harvested by centrifugation at 3,000 g, washed twice with PBS containing 10 mM EDTA and once with PBS and finally resuspended in PBS to a final OD700 of 2.0 corresponding to about 2.0×10^9 cells/ml, respectively.
(§2) Competition assays were carried out in a final volume of 500 μl at RT. Streptococcus gordonii (250 μl in PBS) was mixed with 100 μl synthetic peptide DMBT1-SRCRP2 diluted 1:1 in PBS (final concentration in the assay: 100 μg/ml) or 100 μl purified rDMBT1 in PBS (final concentration in the assay: 15 μg/ml) and 150 μl of the respective competitor stock solutions, so that the final concentrations ranged from 0.32% to 2.50% (w/v) DSS and 0.28% to 0.84% […] degraded carrageenan. Samples with 0.0% competitor served as controls. The samples were placed in a spectrophotometer (Anthelie; SECOMAN, France) and the OD700-value was measured in intervals of 3 minutes. Each experiment was at least done in triplicate. For the DSS competition studies, we used the same DSS as in the animal experiments (Mr=36-50 kDa; ICN Biomedicals Aurora). High molecular weight lambda carrageenan was obtained from Sigma (Taufkirchen; Germany). […]

DMBT1-SRCRP2 = target: T3, DMBT1-SRCRP2 (Homo sapiens, UniProt Q9UGM3); experiment: Turbidometric competition assay, DMBT1-SRCRP2-mediated bacterial aggregation; assay type: binding; conditions: 0.32% to 2.50% (w/v) DSS; 0.28% to 0.84% degraded carrageenan; peptide 100 μg/ml
T3 construct: purity >85%); purchased Eurogentec (Belgium); host or cells: chemical synthesis
Description: as §1, §2

human rDMBT1 = target: T4, human rDMBT1 (Homo sapiens, UniProt Q9UGM3, G1295S/L1336F/T649M); experiment: Binding of human rDMBT1 to immobilized DSS and degraded lambda carrageenan; conditions: rDMBT1 10 μg/ml; immobilized substance
T4 construct: made in house; purified from culture supernatant
Description: DSS was serially diluted in coating buffer (100 mM carbonate buffer, pH 9.6) to obtain final concentrations of 2.5% to 0.02% (w/v). One hundred μl of the samples were applied onto ELISA plates (Microlon, F-Form; Greiner, Germany) and coating was done at 4° C. for 16 h. Acid hydrolyzed and pH-adjusted lambda carrageenan was serially diluted with the solvent (approximately 50 mM HCl and 50 mM NaOH) to obtain concentrations ranging from 2.8% to 0.0055% […] and coating of ELISA plates was done at 37° C. for 2 h. After coating and three washes with TBS containing 0.1% (v/v) Tween 20 (TBS-T), rDMBT1 (10 μg/ml in TBS-T) was added to each well and incubated at 37° C. for 1 h. The wells were then washed five times with 200 μl TBS-T, incubated at 37° C. for 1 h with the DMBT1-specific mouse monoclonal antibody anti(A2) gp-340 (Hyb213-06; Antibody-Shop; dilution 1:10,000 in TBS-T), washed again five-times with TBS-T, and incubated at 37° C. for 1 h with a rabbit anti-mouse IgG-HRP conjugate (Jackson; dilution 1:10,000 in TBS-T). Subsequent to five washes with TBS-T, 150 μl substrate (125 μg/ml 3,3′,5′-Tetramethyl-benzidine; in 0.1 M citrate buffer pH 4.5 with 0.05% (v/v) H2O2) were added, and after incubation at RT for 10-15 min the reaction was stopped by addition of […] 2 M HCl. The intensity of the dye reaction was measured at 450 nm in an ELISA reader (EL800; Bio-Tec Instruments Inc.). […]

DMBT1pbs1 = target: T5, DMBT1pbs1 (Homo sapiens, UniProt Q9UGM3); assay type: binding; design: key: +++: no difference in aggregation compared to reference; ++: moderate inhibition of aggregation over the entire time course or maximal aggregation delayed by 1-5-min compared to reference; +: strong inhibition of aggregation over the entire time course or maximal aggregation delayed by 5-10 min compared to reference; −: complete inhibition of aggregation after 10 min; conditions: pH co
T5 construct: purchased Eurogentec, Belgium
Description: Streptococcus mutans (Ingbritt), Streptococcus gordonii (HG 222 and DSM20568), Escherichia coli (F7 and OM36-1), and Helicobacter pylori (ATCC 43504) were gown and processed as described earlier. Salmonella typhimurium (strain SF1399: wild type; strain SF1195: Rc chemotype; strain SF1567: Rd1 chemotype; strain SF1398: Re chemotype) were kindly provided by Dr. Ben Appelmelk from the Free University of Amsterdam, The Netherlands, and were grown and processed as previously described for E. coli. The bacteria were diluted in the buffers depicted previously to a final OD700 of 0.5 or 1.0 corresponding to about 0.5 and 1.0×10^9 cells/ml respectively.
For quantitative measurements of bacterial aggregation, we added 200 μl peptide stock solution (1 mg/ml in 10% DMSO) diluted with 300 μl TBS containing 0.1% v/v Tween 20 and 1 mM CaCl2 (TBS-TC) to 500 μl of the respective bacterial suspensions to obtain final peptide concentrations of […]. As controls, we used bacterial suspensions, to which 200 μl 10% (v/v %) DMSO in H2O and 300 μl TBS-TC were added. Bacterial aggregation was monitored by measuring the optical density at 700 nm in intervals of 1 min for 1 h in a spectrophotometer (UVICON 930, Kontron Instruments). For the semi-quantitative high-throughput competition assays, we first determined the allowed pH range for DMBT1pbs1-mediated aggregation of S. gordonii and E. coli by using TBS-TC adjusted with either HCl or NaOH. […] For monitoring competitive effects, we preincubated 20 μl of the DMBT1pbs1 stock solution (20 μg) with 20 μl of the respective substance solutions in 48-well microtiter plates at room temperature (RT) for 2 min. As reference served 20 μl 10% (v/v) DMSO solution in H2O mixed with 20 μl of the solvents of the respective substances. Afterwards, 100 μl of S. gordonii or E. coli (resuspended in TBS-TC or TBS-T, respectively, for the calcium-free assays) solution was added simultaneously to each well using a multichannel pipette. Bacterial aggregation was compared to the reference by visual inspection over a time course of 10 min. The scoring system was: (+++) no difference in aggregation compared to reference. (++) moderate inhibition of aggregation over the entire time course or maximal aggregation delayed by 1-5-min compared to reference; (+) strong inhibition of aggregation over the entire time course or maximal aggregation delayed by 5-10 min compared to reference; (−) complete inhibition of aggregation after 10 min. Each experiment was at least done in triplicate.
Sucrose, maltose, dextrose, and the various salts tested were standard reagents obtained from Merck or Sigma. […] The following substances were obtained from Sigma with catalogue numbers in brackets: heparansulfate (H-7640), chondroitinsulfate B (C-3788), azoxymethane (A-9517), N-nitrosodiethlylamine (N-0258), streptococcus sanguis LTA (L-3765), Staphylococcus aureus LTA (L-2515), Escherichia coli LPS (L-3012), Klebsiella pneumoniae LPS (L-1770), Salmonella typhimurium LPS (L-6511), Salmonella minnesota LPS (chemotype Rd1; L-9391), L-α-phosphatidylcholine (P-279), CUROSURF™ with 80 mg/ml phospholipids from pig surfactant (54 mg/ml phosphatidylcholine and 30-5 mg/ml D-palmitoylphosphatidylcholine; overall: 99% polar phospholipids and 1% proteins) was obtained from Dey (Napa; Italy), and sIgA was purchased from Sigma. The dNTPs and the dNTP-Mix were from Roche Diagnostics. The DNA used in all experiments was the 4.7-kb plasmid pEGFP-N1 from Clontech.

[2] = target: T6, rDMBT1 binding to HIV-gp120 (Homo sapiens, UniProt Q9UGM3, G1295S/L1336F/T649M); experiment: Effects of DSS and dextran on rDMBT1 binding to HIV-gp120; conditions: 100 μg/ml DSS or dextran; rDMBT1 2 μg/ml; gp120 1 μg/ml
T6 construct: made in house; host or cells: rDMBT1 from T-REx-CHO
Source text: Values are means of five independent experiments.

Substance | binding to DMBT1 (DMBT1) | Inhibitory effects on rDMBT1-mediated Streptococcus gordonii aggregation [1] | Inhibitory effects on bacterial aggregation mediated by DMBT1-SRCRP2 (DMBT1-SRCRP2) | direct interaction with human DMBT1 (competition and binding studies in vitro) (human rDMBT1) | Aggregation of E. coli (DMBT1pbs1; substance 0.05 mg/ml) | Aggregation of S. gordonii (DMBT1pbs1; substance 0.05 mg/ml) | Aggregation of S. gordonii (DMBT1pbs1; substance 0.1 mg/ml) | inhibition of rDMBT1 binding to immobilized HIV-gp120 [2] | Aggregation of E. coli (DMBT1pbs1; substance 10-50 mg/ml) | Aggregation of S. gordonii (DMBT1pbs1; substance 10-50 mg/ml)
lipoteichoic acid [LTA] | showed binding to DMBT1 |  |  |  |  |  |  |  |  | 
lipopolysaccharide [LPS] | showed binding to DMBT1 |  |  |  |  |  |  |  |  | 
Degraded lambda-carrageenan |  | Inhibitory effects | Inhibitory effects | directly interacted | +++ | ++ | + |  |  | 
Dextran sulfate sodium [Dextran sulfate sodium (DSS)] |  | Inhibitory effects | Inhibitory effects | directly interacted |  |  |  | exerted an inhibitory effect | − | −
